Measurements published in patent US8334262B2, “Cognitive function” (priority 2008, dated 2012).

Legend:
eIF-2α = eIF-2α phosphorylation in hippocampal slices from mature rats (Western blot); type: cell-based, rat
Experimental: (§1) In order to test biochemically the ability of C-16 to reduce eIF-2α phosphorylation in the mature brain, C-16 was applied to hippocampal slices from mature rats substantially as described by Kaphzan et al. (2007) Journal of Neurochemistry 103, 388-399 but with modifications as set out below.
(§2) After decapitation the brain was immediately immersed in cold (4° C.) carboxygenated (95% O2, 5% CO2) Artificial Cerebro-Spinal Fluid (ACSF [in mM]: 124 NaCl, 5 KCl, 1.2 MgSO4, 1.2 NaH2PO4, 26 NaHCO3, 10 D-glucose, 2.4 CaCl), and after about 120s both hippocampi were dissected out in a plate filled with cold (4° C.) ACSF on ice. The hippocampi were put on a cooled stand of a Mcllwain tissue chopper TC752 (Campden Instruments Ltd, UK), cut into 400-μm slices, and then put back into a chamber filled with carboxygenated cold (4° C.) ACSF.
(§3) The slices were transferred to a holding chamber for about 20-30 min, to reach room temperature, and were then transferred to a six-chamber pharmacological instrument, designed to our specifications by Scientific Systems Design Company (Ontario, Canada). All of the slices tested in any one experiment (i.e., in all six chambers) were produced by the same procedure from the same rat. The hippocampal slices were heated to 32° C. and were kept in the chamber for 5 h before any pharmacological intervention. Each chamber contained four slices. The slices were perfused with heated and carboxygenated ACSF (with or without 50 μM C-16 (experimental and control groups respectively)) via a Model MP3 peristaltic pump (Gilson, France), at a rate of ˜2 mL min for 10 mins. The chamber space was carboxygenated and humidified. The chamber was an interface type, and the slices were placed upon a lens paper.
(§4) The slices were analysed occasionally for their viability using extracellular recordings of fEPSP in the CA1 region. […]
(§5) The time window of C-16 effect was analysed by Western blot using specific antibodies for phosphorylated and dephosphorylated forms of PKR and eIF-2α. […]

rats [1] = test: Weak conditioned taste aversion (CTA); type: in vivo, rat
PKR [2] = target: T1, PKR (Rattus norvegicus, UniProt Q63184); test: PKR phosphorylation in hippocampal slices from mature rats (Western blot); type: cell-based
T1 construct: from tissue; host or cells: rat hippocampal slices (400 µm)
T1 sequence (Q63184 1-513): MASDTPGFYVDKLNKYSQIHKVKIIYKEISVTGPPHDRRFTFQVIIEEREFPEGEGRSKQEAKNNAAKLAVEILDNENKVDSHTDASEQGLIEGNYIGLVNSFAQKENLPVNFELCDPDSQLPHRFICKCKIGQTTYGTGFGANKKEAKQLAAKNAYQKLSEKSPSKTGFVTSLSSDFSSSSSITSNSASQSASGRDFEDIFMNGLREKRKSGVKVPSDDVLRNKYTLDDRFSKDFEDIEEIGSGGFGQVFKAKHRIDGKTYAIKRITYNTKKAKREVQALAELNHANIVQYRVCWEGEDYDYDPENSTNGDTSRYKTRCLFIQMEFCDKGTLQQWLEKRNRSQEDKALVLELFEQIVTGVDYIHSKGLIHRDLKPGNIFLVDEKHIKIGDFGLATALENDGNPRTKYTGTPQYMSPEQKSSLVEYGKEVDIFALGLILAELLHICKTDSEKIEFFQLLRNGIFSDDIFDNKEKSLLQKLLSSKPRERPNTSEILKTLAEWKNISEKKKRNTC
Experimental: as §1, §2, §3, §4, §5

rats [3] = test: Observation of side effects in rats injected with C-16; type: in vivo, rat
Experimental: Conditioned taste aversion and novel taste learning were enhanced.
(§6) C-16 was injected i.p. every day, 2 hr before odour maze training. There was 48 hr break between day 3 and 4 without training or injection.

rats [4] = test: Contextual fear conditioning (freezing); type: in vivo, rat; conditions: i.p. 2 hr before conditioning; tested 24 hours and 10 days later; p<0.05
Text: The entire behavioural procedure took place in the same conditioning chamber containing floor grids and transparent Plexiglas walls. The context of the chamber served as a conditioned stimulus (CS). Rats were placed in the chamber for an approximately two minute adjustment before they were given a foot-shock (0.8 mA for 0.5 sec), which was delivered to the floor bars and served as the unconditioned stimulus (US). The CS-US pairings were given three times. The inter-trial interval was 90-120 seconds throughout. The video images are transferred to a computer (fear-conditioning experiments, control experiment, Dell OptiPlex GXpro) equipped with an analysis program (Image (http://rsb.info.nih.gov/nih-image)) and a macroprogram (P. Schmid, Behavioral Neurobiology Laboratory, Swiss Federal Institute of Technology Zurich). The percentage of changed pixels between two adjacent 1 s images from one of the test boxes was used as a measure of activity. Freezing is commonly identified as cessation of any movement except for respiratory movements. If the percentage of changed pixels between two adjacent 1 s images was <0.05%, this corresponded well to such immobility and the behavior of the rat was scored as “freezing” for the respective second.
C-16 was injected i.p. 2 hr before contextual fear condition. […]

Sprague-Dawly male rats = test: Odour maze learning (olfactory discrimination, 4-arm radial maze); type: in vivo, rat; conditions: i.p. every day, 2 hr before training; day 3 & 6 p<0.05, n=4
Experimental: Subjects and apparatus: Age-matched young adult Sprague-Dawly male rats were used. Prior to training they were maintained on a 23.5 hr water-deprivation schedule, with food available ad libitum. Olfactory discrimination training protocol was performed daily on each trained and pseudo-trained rat in a 4-arm radial maze, as previously described (Cohen-Matsliah et al. (2007) Journal of Neuroscience 27, 12584-12589), with commercial odours that are regularly used in the cosmetics and food industry.
as §6
Training: Olfactory training consisted of 20 trials per day for each rat as previously described (Cohen-Matsliah et al. (2007)). In short, in each trial the rat had to choose between two odours (positive- and negative-cue) presented simultaneously. Rats designated to the trained group were rewarded upon choosing the positive cue. The criterion for learning was at least 80% positive-cue choices in the last 10 trials of a training day, as was previously used (Cohen-Matsliah et al. (2007)). Training for a new pair began only after training for the […] pair was completed for all rats.

PKR [5] = target: PKR (Homo sapiens, UniProt P19525); conditions: by inhibiting the ATP-binding site of PKR; cited from earlier work
Sequence of PKR (Homo sapiens, UniProt P19525) (P19525 whole entry): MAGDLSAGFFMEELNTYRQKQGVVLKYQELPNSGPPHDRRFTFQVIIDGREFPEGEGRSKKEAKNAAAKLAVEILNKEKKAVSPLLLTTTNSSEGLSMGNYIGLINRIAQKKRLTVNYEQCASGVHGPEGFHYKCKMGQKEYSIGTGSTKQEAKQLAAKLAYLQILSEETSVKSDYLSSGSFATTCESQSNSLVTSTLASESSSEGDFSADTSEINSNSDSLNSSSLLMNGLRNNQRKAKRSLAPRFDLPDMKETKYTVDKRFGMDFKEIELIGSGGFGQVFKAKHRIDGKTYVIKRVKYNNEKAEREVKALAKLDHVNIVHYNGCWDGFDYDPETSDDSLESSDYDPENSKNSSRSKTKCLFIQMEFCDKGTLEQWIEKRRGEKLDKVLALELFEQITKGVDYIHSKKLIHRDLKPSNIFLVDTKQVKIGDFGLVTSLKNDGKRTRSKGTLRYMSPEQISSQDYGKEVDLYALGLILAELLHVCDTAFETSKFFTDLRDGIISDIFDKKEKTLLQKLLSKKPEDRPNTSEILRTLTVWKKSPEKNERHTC

rats [6] = test: Novel taste learning, latent inhibition (LI) paradigm; type: in vivo, rat
Experimental: CTA was performed as described earlier (Rosenblum et al., (1993) Behavioral and Neural Biology 59, 49-56). Saccharin (0.1% w/v, sodium salt) or NaCl (0.3%) were used as the unfamiliar taste in training (i.e. the conditioned stimulus (CS)), and injection of LiCl (0.15 m, 2% body weight, i.p.) as the malaise-inducing agent (unconditioned stimulus (UCS)). At the beginning of the behavioral experiment, the rats were trained for 3 days to obtain their daily water ration once a day for 15 min from two pipettes each containing 10 mL of water. On the conditioning day, they were allowed to drink the saccharin solution instead of water from similar pipettes for 15 min, and 50 min later were injected with LiCl. Under these conditions, 2 days after training the conditioned rats preferred water to saccharin in a multiple choice test situation (three pipettes with 5 mL of saccharin each and three with 5 mL of water each), whereas non-conditioned rats preferred saccharin to water. The behavioural data are presented in terms of aversion index, defined as [mL water/(mL water+mL saccharin)] consumed in the test; 0.5 is a chance level, and the higher the aversion index, the more the rats prefer water to the conditioned taste. […]

[7] = 50 μM C-16 perfused on hippocampal slices
[8] = time window, Western blot, 1 hr after treatment

O=C1Nc2ccc3ncsc3c2/C1=C/c1c[nH]cn1 [Compound C-16]
eIF-2α phosphorylation in the mature hippocampus (FIG. 3) (eIF-2α; [7]): inhibited
time of return of eIF-2α phosphorylation to base line following treatment (eIF-2α; time window, Western blot): 3 to 4 h
C-16 effect on eIF-2α phosphorylation after 1 hr (eIF-2α; [8]): strong effect
weak CTA (0.05M) to 0.3% NaCl (FIG. 10) (rats [1]; 30 min after local injection into the gustatory cortex, 50 μM, p<0.05): enhances weak CTA
weak Conditioned Taste Aversion (0.05M) to 0.3% NaCl (FIG. 9) (rats [1]; 2 hr after i.p. application, n=8): enhances weak Conditioned Taste Aversion
PKR phosphorylation in the mature hippocampus (FIG. 2) (PKR [2]; [7]): inhibited
time of return of PKR phosphorylation to base line following treatment (PKR [2]; time window, Western blot): 3 to 4 h
C-16 effect on PKR phosphorylation after 1 hr (PKR [2]; [8]): strong effect
side effects on repeated i.p. injection (rats [3]; i.p. once a day over a period of more than 7 days, odour maze experiment): without any clear disadvantageous side effect
other effects in taste learning experiments (rats [3]; local and i.p. injection): no other effect that could be measured
contextual fear condition, average freezing between 4th and 7th minutes (FIG. 12) (rats [4]): enhances contextual fear condition
odour maze learning (FIG. 11) (Sprague-Dawly male rats): enhances odour maze learning
PKR kinase activity (PKR [5]): able to inhibit PKR's kinase activity
novel taste memory of 0.1% Saccharin (FIG. 8) (rats [6]; 30 min after local microinjection into the gustatory cortex, 50 μM, p<0.05): enhances novel taste memory
novel taste memory of 0.1% Saccharin (FIG. 7) (rats [6]; 2 hr after i.p. application, p<0.01, n=6): enhances novel taste memory
